{"source": "paper PMC6273962", "about": "“Design, Synthesis and Structure-Activity Relationships of Novel Diaryl Urea Derivatives as Potential EGFR Inhibitors” (Molecules, 2016)", "molecular_target": "EGFR (Homo sapiens, UniProt P00533)", "sequence (P00533 25-1210)": "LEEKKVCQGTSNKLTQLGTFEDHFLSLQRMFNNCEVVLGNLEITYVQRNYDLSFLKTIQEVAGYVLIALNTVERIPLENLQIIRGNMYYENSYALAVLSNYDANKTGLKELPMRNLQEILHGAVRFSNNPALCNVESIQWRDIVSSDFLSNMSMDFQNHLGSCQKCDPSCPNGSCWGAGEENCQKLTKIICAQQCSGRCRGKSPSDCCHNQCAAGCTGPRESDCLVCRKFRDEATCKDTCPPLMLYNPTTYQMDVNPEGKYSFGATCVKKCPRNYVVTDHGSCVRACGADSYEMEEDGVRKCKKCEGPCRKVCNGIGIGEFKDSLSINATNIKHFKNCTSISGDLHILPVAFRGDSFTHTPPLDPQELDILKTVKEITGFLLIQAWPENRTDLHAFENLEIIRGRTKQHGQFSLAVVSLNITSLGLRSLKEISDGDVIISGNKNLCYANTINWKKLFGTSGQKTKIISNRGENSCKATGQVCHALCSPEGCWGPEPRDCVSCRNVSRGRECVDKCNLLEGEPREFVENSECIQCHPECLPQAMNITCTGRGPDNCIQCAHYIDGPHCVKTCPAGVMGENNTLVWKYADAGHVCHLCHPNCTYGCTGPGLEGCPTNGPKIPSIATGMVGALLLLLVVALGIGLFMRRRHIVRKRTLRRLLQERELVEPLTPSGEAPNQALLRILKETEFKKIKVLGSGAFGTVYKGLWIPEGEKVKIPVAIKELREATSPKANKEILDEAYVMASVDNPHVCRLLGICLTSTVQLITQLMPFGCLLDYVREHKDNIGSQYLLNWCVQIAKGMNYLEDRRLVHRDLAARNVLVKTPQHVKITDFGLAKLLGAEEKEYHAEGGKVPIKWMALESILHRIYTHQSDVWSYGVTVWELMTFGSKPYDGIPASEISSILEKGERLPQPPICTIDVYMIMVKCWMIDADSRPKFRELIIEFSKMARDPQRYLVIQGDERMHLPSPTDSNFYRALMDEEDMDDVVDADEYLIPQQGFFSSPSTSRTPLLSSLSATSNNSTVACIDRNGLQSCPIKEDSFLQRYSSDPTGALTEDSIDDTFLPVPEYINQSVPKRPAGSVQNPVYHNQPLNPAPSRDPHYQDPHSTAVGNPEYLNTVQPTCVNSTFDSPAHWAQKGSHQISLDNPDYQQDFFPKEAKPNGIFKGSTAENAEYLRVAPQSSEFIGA", "test": "mobility shift kinase assay (Caliper, FAM-labeled peptide)", "assay_type": "biochemical"}
{"smiles": "Cc1cccc(Cl)c1NC(=O)Nc1ccc(-c2nc(NCCN(C)C)c3ccccc3n2)cc1", "note": "[5a, 1-(2-Chloro-6-methylphenyl)-3-(4-(4-((2-(dimethylamino)ethyl)amino)quinazolin-2-yl)phenyl)urea]", "values": [{"measurement": "IC50", "result": 56, "unit": "nM"}]}
